In patent US20180243345A1, “METHOD FOR INCREASING MUSCLE GROWTH USING KRILL EXTRACT” (AVOCA, INC., priority 2015, published 2018):

Tested on: mTOR signaling
Test: mTOR signaling in C2C12 myoblasts (Western blot, ratio of P-p70-389 to total p70)
Assay type: cell-based
Settings: for change in ratio of P-p70-389 to total p70 (mTOR signaling) compared to vehicle/control, in words / mTOR signaling compared with another stimulant, in words: 10 or 30 μM, 20 minutes; for mTOR signaling (ratio of P-p70-389 to total p70): 20 minutes stimulation, compared to vehicle
Experimental: C2C12 myoblasts were plated at approximately 30% confluence and grown for 24 hours in 10% FBS High Glucose DMEM with antibiotics (100m/ml streptomycin and 100 U/ml penicillin; Sigma). At 16 hours prior to the experiment, myoblasts cells were switched to serum free high glucose DMEM (no antibiotics) and were approximately 70% confluent at the time of the experiment. All stimulants were dissolved in chloroform to yield a concentration of 10 mg/mL, with the exception of DAG which was dissolved at 2 mg/mL and G3P which was dissolved at 6 mg/mL. […] Accordingly, cells were stimulated for 20 minutes with vehicle (Control; 100 μL of PBS) 10 or 30 μM of RIMFROST Sublime Krill Oil Extract (Rimfrost USA, Inc, Merry Hill, N.C.), soy-derived (S) phosphatidylserine (S-PS), phosphatidylinositol (S-PI), phosphatidylethanolamine (S-PE), phosphatidylcholine (S-PC), phosphatidic acid (S-PA), lysophosphatidic acid (S-LPA), diacylglycerol (DAG), glycerol-3-phosphate (G3P), or egg-derived PA (E-PA). Cells were then harvested in lysis buffer (40 mM Tris, pH 7.5; 1 mM EDTA; 5 mM EGTA; 0.5% Triton X-100; 25 mM (3-glycerophosphate; 25 mM NaF; 1 mM Na3VO4; 10 μg/mL leupeptin; and 1 mM PMSF) and subjected to immunoblotting as previously described. The ratio of P-p70-389 to total p70 was used as readout for mTOR signaling. As used in the Examples disclosed herein, 10 μM of RIMFROST Sublime Krill Oil Extract contains 0.01253 μM PS, which is 0.6% of the phospholipid content; and 30 μM of RIMFROST Sublime Krill Oil Extract contains 0.0376 μM PS, which is 0.6% of the phospholipid content.
The data was analyzed using a one way analysis of variance (ANOVA). A Tukey's Multiple Comparison Test was used to determine significant differences between treatments. Significance was set at P<0.05. Statistical analyses were performed on SigmaStat software (San Jose, Calif., USA).
In accordance with the materials and methods described above, krill extract, S-PC, S-PS, and S-PA were tested for their ability to activate mTOR signaling. […] The samples were then subjected to Western blot analysis for p70S6K phosphorylation on the threonine 389 residue (p′70-389) and total p70. The ratio of these signals was calculated and used as a marker of mTOR signaling.

Compound | change in ratio of P-p70-389 to total p70 (mTOR signaling) compared to vehicle/control, in words | mTOR signaling (ratio of P-p70-389 to total p70) (taken as 10 μM) [%] | mTOR signaling (ratio of P-p70-389 to total p70) (taken as 30 μM) [%] | mTOR signaling compared with another stimulant, in words
diacylglycerol [DAG] | no increase | – | – | –
phosphatidylserine [S-PS] | – | 529 | 558 | –
phosphatidic acid [S-PA] | – | 658 | 636 | to a greater degree than did E-PA
phosphatidylethanolamine [S-PE] | no increase | – | – | –
lysophosphatidic acid [S-LPA] | – | 638 | 694 | to a greater degree than did E-PA
phosphatidylcholine [S-PC] | no increase | – | – | –
phosphatidylinositol [S-PI] | no increase | – | – | –
phosphatidic acid [E-PA] | – | 206 | 221 | –
O=P(O)(O)OCC(O)CO (stereo not drawn) [G3P, glycerol-3-phosphate] | no increase | – | – | –
